Measurements reported in ChEMBL document CHEMBL1154920, “Rare casbane diterpenoids from the Hainan soft coral Sinularia depressa” (J Nat Prod, 2010).

Columns and labels:
[1] = tested on: Staphylococcus aureus; test: Antibacterial activity against Staphylococcus aureus by broth macrodilution method; type: functional, organism-based
[2] = tested on: HepG2; test: Cytotoxicity against human HepG2 cells after 72 hrs by MTT assay; type: functional, cell-based; conditions: HepG2, 72 h
[3] = tested on: Escherichia coli; test: Antibacterial activity against Escherichia coli by broth macrodilution method; type: functional, organism-based
[4] = tested on: SW1990; test: Cytotoxicity against human SW1990 cells after 72 hrs by MTT assay; type: functional, cell-based; conditions: SW1990, 72 h

`C/C1=C\[C@@H](O)C/C(C)=C/CC(=O)/C(C)=C/[C@@H]2[C@H](CC1)C2(C)C` gave an IC50 [1] of 17 µM, an IC50 [2] of 61 µM and an IC50 [3] of 17 µM. It also gave an IC50 [4] of 37 µM.
